# Assay results published in patent US20250074920A1, “MACROCYCLIC COMPOUNDS AND USE AS KINASE INHIBITORS” (BLOSSOMHILL THERAPEUTICS, INC., priority 2022, published 2025).
# Columns and labels:
# Assay in all cases: KINOMEscan kinase binding assay
# [1] = system: MST1R; details: at 1 μM
# How it was run: (§1)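 Dissociation constants came from the amount of kinase captured on the solid support across a test compound concentration series. Captured kinase, T7 phage-fused or HEK-293-made and DNA-tagged, was read by qPCR after a 1 h room-temperature binding step.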
# [2] = system: FGFR3(G697C); details: at 1 μM
# How it was run: as §1
# [3] = system: TRKC; details: at 1 μM
# How it was run: as §1
# [4] = system: RET(V804L); details: at 1 μM
# How it was run: as §1
# [5] = system: ITK; details: at 1 μM
# How it was run: as §1
# [6] = system: ABL1(Q252H)-nonphosphorylated; details: at 1 μM
# How it was run: as §1
# [7] = system: HCK; details: at 1 μM
# How it was run: as §1
# [8] = system: LCK; details: at 1 μM
# How it was run: as §1
# [9] = system: TRKB; details: at 1 μM
# How it was run: as §1
# [10] = system: BLK; details: at 1 μM
# How it was run: as §1
# [11] = system: JAK3(JH1domain-catalytic)
# How it was run: (§2)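 We measured how much kinase stayed bound to an immobilized small-molecule ligand when test compound was present. Binding ran at room temperature for 1 h, and the kinase eluted from the beads was counted by qPCR. Lower % Ctrl indicated tighter compound binding.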
# [12] = system: ZAP70; details: at 1 μM
# How it was run: as §1
# [13] = system: KIT; details: at 1 μM
# How it was run: as §1
# [14] = system: LTK; details: at 1 μM
# How it was run: as §1
# [15] = system: EPHA6; details: at 1 μM
# How it was run: as §2
# [16] = system: ABL1(F317I)-nonphosphorylated; details: at 1 μM
# How it was run: as §1
# [17] = system: FLT3-autoinhibited; details: at 1 μM
# How it was run: as §1
# [18] = system: LYN; details: at 1 μM
# How it was run: as §1
# [19] = system: KIT(D816H); details: at 1 μM
# How it was run: as §1
# [20] = system: CSF1R; details: at 1 μM
# How it was run: as §1
# [21] = system: PYK2; details: at 1 μM
# How it was run: as §1
# [22] = system: VEGFR2; details: at 1 μM
# How it was run: as §1
# [23] = system: ABL1(T315I)-nonphosphorylated; details: at 1 μM
# How it was run: as §1
# [24] = system: FAK; details: at 1 μM
# How it was run: as §1
# [25] = system: MET(M1250T); details: at 1 μM
# How it was run: as §1
# [26] = system: DDR1; details: at 1 μM
# How it was run: as §1
# [27] = system: MET(Y1235D); details: at 1 μM
# How it was run: as §1
# [28] = system: KIT(V559D); details: at 1 μM
# How it was run: as §1
# [29] = system: FYN; details: at 1 μM
# How it was run: as §1
# [30] = system: RET(M918T); details: at 1 μM
# How it was run: as §1
# [31] = system: TXK; details: at 1 μM
# How it was run: as §1
# [32] = system: EPHA3; details: at 1 μM
# How it was run: as §2
# [33] = system: EPHB1; details: at 1 μM
# How it was run: as §1
# [34] = system: FLT3(D835H); details: at 1 μM
# How it was run: as §1
# [35] = system: PDGFRB; details: at 1 μM
# How it was run: as §1
# [36] = system: SRC; details: at 1 μM
# How it was run: as §1
# [37] = system: SYK; details: at 1 μM
# How it was run: as §1
# [38] = system: BTK; details: at 1 μM
# How it was run: as §1
# [39] = system: EGFR(E746-A750del); details: at 1 μM
# How it was run: as §1
# [40] = system: FGFR1; details: at 1 μM
# How it was run: as §1
# [41] = system: MERTK; details: at 1 μM
# How it was run: as §1
# [42] = system: MUSK; details: at 1 μM
# How it was run: as §1
smiles,measurement,setting,value
"Cc1cc2c([nH]1)/C=C1\C(=O)Nc3c(Cl)cc(cc31)-c1cn(C)nc1COC[C@@H](C)N(C)C2=O [Cpd. 5, [3a(4)Z,10R]-20-chloro-6,9,10,15-tetramethyl-10,11,13,15-tetrahydro-2H-1,17-(ethanediylidene)pyrazolo[4,3-m]dipyrrolo[3,2-f:3′,4′-i][1,4]oxazacyclopentadecine-3,8(5H,9H)-dione]",% Ctrl,[1],95%
same,% Ctrl,[2],93%
same,% Ctrl,[3],98%
same,% Ctrl,[4],84%
same,% Ctrl,[5],96%
same,% Ctrl,[6],79%
same,% Ctrl,[7],100%
same,% Ctrl,[8],94%
same,% Ctrl,[9],100%
same,% Ctrl,[10],87%
same,% Ctrl,"[11]; JAK3(JH1domain-catalytic), at 1 μM",79%
same,Kd,[11]; read-out: JAK3(JH1 domain-catalytic) Kd,> 10 µM
same,% Ctrl,[12],63%
same,% Ctrl,[13],98%
same,% Ctrl,[14],93%
same,% Ctrl,[15],91%
same,% Ctrl,[16],90%
same,% Ctrl,[17],87%
same,% Ctrl,[18],91%
same,% Ctrl,[19],77%
same,% Ctrl,[20],96%
same,% Ctrl,[21],83%
same,% Ctrl,[22],92%
same,% Ctrl,[23],100%
same,% Ctrl,[24],96%
same,% Ctrl,[25],100%
same,% Ctrl,[26],93%
same,% Ctrl,[27],100%
same,% Ctrl,[28],96%
same,% Ctrl,[29],77%
same,% Ctrl,[30],87%
same,% Ctrl,[31],94%
same,% Ctrl,[32],79%
same,% Ctrl,[33],92%
same,% Ctrl,[34],79%
same,% Ctrl,[35],100%
same,% Ctrl,[36],100%
same,% Ctrl,[37],90%
same,% Ctrl,[38],68%
same,% Ctrl,[39],95%
same,% Ctrl,[40],84%
same,% Ctrl,[41],86%
same,% Ctrl,[42],100%
